Assay results: ChEMBL document CHEMBL3085649, “2'-Deoxyuridine 5'-monophosphate substrate displacement in thymidylate synthase through 6-hydroxy-2H-naphtho[1,8-bc]furan-2-one derivatives” (J Med Chem, 2013)
Active and inactive are the calls of the source. The rule behind the calls is not given here.

Columns and labels:
Thymidylate synthase [1] = target: T1, Thymidylate synthase (Pneumocystis carinii, UniProt P13100); assay: Inhibition of Pneumocystis carinii thymidylate synthase using MTHF and dUMP as substrates
T1 sequence (P13100 whole entry): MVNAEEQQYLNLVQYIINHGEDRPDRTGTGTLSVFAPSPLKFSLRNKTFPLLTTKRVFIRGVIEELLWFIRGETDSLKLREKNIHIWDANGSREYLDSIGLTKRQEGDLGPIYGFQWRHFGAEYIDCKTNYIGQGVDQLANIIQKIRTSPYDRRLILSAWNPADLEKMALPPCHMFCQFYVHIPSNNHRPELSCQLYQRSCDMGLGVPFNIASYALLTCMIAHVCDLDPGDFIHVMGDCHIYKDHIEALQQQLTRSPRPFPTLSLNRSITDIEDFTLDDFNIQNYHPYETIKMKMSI

[2] = Inhibition of Enterococcus fecalis thymidylate synthase using MTHF and dUMP as substrates; set-up: species or system Enterococcus faecalis
[3] = Inhibition of Escherichia coli thymidylate synthase using MTHF and dUMP as substrates
Thymidylate synthase [4] = target: T2, Thymidylate synthase (Lactobacillus casei, UniProt P00469); assay: Inhibition of Lactobacillus casei thymidylate synthase using MTHF and dUMP as substrates; set-up: species or system Lacticaseibacillus casei
T2 sequence (P00469 whole entry): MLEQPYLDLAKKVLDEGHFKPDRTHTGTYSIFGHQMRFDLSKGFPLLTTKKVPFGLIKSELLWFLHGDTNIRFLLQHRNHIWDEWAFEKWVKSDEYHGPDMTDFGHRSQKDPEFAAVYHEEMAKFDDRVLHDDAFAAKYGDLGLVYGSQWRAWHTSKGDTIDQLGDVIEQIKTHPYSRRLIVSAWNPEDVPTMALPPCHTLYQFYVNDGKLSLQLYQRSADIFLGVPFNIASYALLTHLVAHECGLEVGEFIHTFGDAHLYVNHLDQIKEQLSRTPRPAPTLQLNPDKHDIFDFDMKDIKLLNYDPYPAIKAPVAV

[5] = target: Thymidylate synthase (Homo sapiens) (UniProt P04818); assay: Inhibition of human thymidylate synthase using MTHF and dUMP as substrates at 100 uM
Escherichia coli = assay: Inhibition of Escherichia coli thymidylate synthase using MTHF and dUMP as substrates at 100 uM
[6] = target: T3, Thymidylate synthase (Pneumocystis carinii) (UniProt P13100); assay: Inhibition of Pneumocystis carinii thymidylate synthase using MTHF and dUMP as substrates at 100 uM
T3 sequence (whole entry): T1 sequence (P13100 whole entry)

Enterococcus faecalis = assay: Inhibition of Enterococcus fecalis thymidylate synthase using MTHF and dUMP as substrates at 100 uM
[7] = target: T4, Thymidylate synthase (Lactobacillus casei) (UniProt P00469); assay: Inhibition of Lactobacillus casei thymidylate synthase using MTHF and dUMP as substrates at 100 uM; settings: Lacticaseibacillus casei
T4 sequence (whole entry): T2 sequence (P00469 whole entry)

Thymidylate synthase (Homo sapiens), sequence (P04818 2-313 limits assumed): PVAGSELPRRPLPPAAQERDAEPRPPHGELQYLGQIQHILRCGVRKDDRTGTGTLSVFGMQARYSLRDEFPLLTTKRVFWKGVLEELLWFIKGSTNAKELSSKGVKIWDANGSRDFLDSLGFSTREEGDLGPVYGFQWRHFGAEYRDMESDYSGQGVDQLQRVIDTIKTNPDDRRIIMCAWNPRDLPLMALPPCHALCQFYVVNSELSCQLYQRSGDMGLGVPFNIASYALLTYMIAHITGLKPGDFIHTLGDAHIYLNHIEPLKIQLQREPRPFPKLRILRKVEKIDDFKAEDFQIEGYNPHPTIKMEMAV

SMILES | Ki (Thymidylate synthase [1]) | Ki [2] | Ki (Thymidylate synthase [4]) | inhibition [5] | inhibition (Escherichia coli) | inhibition [6] | inhibition (Enterococcus faecalis) | inhibition [7] | Ki [3]
O=C(Oc1ccc2c3c(cccc13)C(=O)O2)c1cccc(C(F)(F)F)c1 |  | 41 µM | 33 µM | inactive | inactive | inactive |  |  | 
O=C(Oc1ccc2c3c(cccc13)C(=O)O2)c1ccc([N+](=O)[O-])cc1 | 3.5 µM | 27 µM | 1.2 µM |  |  |  |  |  | 6 µM
O=C1Oc2ccc(OC(=O)C3CCCCC3)c3cccc1c23 | 18 µM |  | 49 µM | inactive |  |  | inactive |  | 66 µM
O=C(Oc1ccc2c3c(cccc13)C(=O)O2)c1ccc(SC(F)(F)F)cc1 |  |  |  | inactive | inactive | inactive | inactive | inactive | 
N#Cc1cccc(C(=O)Oc2ccc3c4c(cccc24)C(=O)O3)c1 | 0.31 µM | 14 µM | 0.39 µM |  |  |  |  |  | 4 µM
O=C(Oc1ccc2c3c(cccc13)C(=O)O2)c1ccc2c(c1)OCO2 |  |  |  | inactive | inactive | inactive | inactive | inactive | 
O=C(Oc1ccc2c3c(cccc13)C(=O)O2)c1ccco1 | 15 µM | 20 µM | 13 µM |  | inactive |  |  |  | 

More lines, main results first:

Ki (Thymidylate synthase [1]) | Ki [2] | Ki (Thymidylate synthase [4]) | inhibition [5] | inhibition (Escherichia coli) | inhibition [6] | inhibition (Enterococcus faecalis) | inhibition [7] | SMILES | Ki [3]
34 µM | 37 µM | 10 µM |  |  |  |  |  | CCOC(=O)Oc1ccc2c3c(cccc13)C(=O)O2 | 67 µM
19 µM | 41 µM | 10 µM |  |  |  |  |  | C=CC(=O)Oc1ccc2c3c(cccc13)C(=O)O2 | 
10 µM |  | 6 µM | inactive | inactive |  | inactive |  | C/C=C/C(=O)Oc1ccc2c3c(cccc13)C(=O)O2 | 
 |  | 9 µM | inactive | inactive | inactive | inactive |  | CC(C)COC(=O)Oc1ccc2c3c(cccc13)C(=O)O2 | 
